Values of other authors as cited in patent US20060025476A1, “Use of methyl pyruvate for the purpose of reducing weight gain in mammals” (priority 2004, published 2006).
Read-outs that look alike come from different tables or passages of the source.

How the values were obtained:
UCP-1 mRNA expression = conditions: 4-5 h, basal or rosiglitazone-treated cells
[1] = test system: porcine carotid artery strips
Na(+)-K(+)-ATPase = conditions: 10 microM
[2] = test system: fetal rat brown adipocyte primary cultures
[3] = test system: guinea-pig cerebral cortical synaptosomes
PPAR-alpha [4] = target: T1, PPAR-alpha (Rattus norvegicus, UniProt P37230); design: from tissue; conditions: control and high-fat-fed rats
T1 sequence (P37230 1-468): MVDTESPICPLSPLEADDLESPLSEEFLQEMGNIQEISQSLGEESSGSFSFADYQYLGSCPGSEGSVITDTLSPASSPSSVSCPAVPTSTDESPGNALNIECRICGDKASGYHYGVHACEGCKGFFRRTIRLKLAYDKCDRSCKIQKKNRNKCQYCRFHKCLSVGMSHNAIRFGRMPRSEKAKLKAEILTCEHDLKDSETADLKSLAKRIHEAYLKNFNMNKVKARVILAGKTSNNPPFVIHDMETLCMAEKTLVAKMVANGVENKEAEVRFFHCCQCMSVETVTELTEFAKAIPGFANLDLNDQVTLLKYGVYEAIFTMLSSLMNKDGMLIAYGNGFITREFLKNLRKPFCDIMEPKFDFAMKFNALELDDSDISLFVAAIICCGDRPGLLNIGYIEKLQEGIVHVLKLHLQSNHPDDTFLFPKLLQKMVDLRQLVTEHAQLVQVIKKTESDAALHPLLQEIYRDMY

PPAR-alpha [5] = target: T1, PPAR-alpha; design: from tissue; host or cells: rat gastrocnemius muscle, in vivo; conditions: gastrocnemius muscle, feeding
[6] = test system: Jurkat T-lymphocyte mitochondria
[7] = test system: isolated rat pancreatic islets
pancreatic islets = conditions: NAD(P)H imaging with LipDH autofluorescence
[8] = test system: isolated beta-cell mitochondria; conditions: accumulation of ATP in medium, in combination with glutamate
[9] = test system: isolated rat pancreatic islets; conditions: compared with pyruvate
pancreatic beta-cells [10] = test system: pancreatic beta-cells
pancreatic beta-cells [11] = test system: pancreatic beta-cells; remark: listed apart in the source
K(ATP) channels = target: T2, K(ATP) channels (Homo sapiens, UniProt Q09428+Q14654)
T2 construct: endogenous in cells; host or cells: pancreatic beta-cells
T2 sequence (Q14654 whole entry): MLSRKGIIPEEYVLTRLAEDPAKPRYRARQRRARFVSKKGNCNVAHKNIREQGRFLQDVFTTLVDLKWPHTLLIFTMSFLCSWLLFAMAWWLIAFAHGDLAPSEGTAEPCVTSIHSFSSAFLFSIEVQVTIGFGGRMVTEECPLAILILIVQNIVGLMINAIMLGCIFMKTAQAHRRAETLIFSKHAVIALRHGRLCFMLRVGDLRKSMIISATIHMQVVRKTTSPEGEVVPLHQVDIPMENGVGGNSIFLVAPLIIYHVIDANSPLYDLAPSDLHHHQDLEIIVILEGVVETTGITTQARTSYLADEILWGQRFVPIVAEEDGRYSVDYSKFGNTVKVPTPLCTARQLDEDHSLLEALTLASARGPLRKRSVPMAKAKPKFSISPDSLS
T2 sequence (Q09428 whole entry): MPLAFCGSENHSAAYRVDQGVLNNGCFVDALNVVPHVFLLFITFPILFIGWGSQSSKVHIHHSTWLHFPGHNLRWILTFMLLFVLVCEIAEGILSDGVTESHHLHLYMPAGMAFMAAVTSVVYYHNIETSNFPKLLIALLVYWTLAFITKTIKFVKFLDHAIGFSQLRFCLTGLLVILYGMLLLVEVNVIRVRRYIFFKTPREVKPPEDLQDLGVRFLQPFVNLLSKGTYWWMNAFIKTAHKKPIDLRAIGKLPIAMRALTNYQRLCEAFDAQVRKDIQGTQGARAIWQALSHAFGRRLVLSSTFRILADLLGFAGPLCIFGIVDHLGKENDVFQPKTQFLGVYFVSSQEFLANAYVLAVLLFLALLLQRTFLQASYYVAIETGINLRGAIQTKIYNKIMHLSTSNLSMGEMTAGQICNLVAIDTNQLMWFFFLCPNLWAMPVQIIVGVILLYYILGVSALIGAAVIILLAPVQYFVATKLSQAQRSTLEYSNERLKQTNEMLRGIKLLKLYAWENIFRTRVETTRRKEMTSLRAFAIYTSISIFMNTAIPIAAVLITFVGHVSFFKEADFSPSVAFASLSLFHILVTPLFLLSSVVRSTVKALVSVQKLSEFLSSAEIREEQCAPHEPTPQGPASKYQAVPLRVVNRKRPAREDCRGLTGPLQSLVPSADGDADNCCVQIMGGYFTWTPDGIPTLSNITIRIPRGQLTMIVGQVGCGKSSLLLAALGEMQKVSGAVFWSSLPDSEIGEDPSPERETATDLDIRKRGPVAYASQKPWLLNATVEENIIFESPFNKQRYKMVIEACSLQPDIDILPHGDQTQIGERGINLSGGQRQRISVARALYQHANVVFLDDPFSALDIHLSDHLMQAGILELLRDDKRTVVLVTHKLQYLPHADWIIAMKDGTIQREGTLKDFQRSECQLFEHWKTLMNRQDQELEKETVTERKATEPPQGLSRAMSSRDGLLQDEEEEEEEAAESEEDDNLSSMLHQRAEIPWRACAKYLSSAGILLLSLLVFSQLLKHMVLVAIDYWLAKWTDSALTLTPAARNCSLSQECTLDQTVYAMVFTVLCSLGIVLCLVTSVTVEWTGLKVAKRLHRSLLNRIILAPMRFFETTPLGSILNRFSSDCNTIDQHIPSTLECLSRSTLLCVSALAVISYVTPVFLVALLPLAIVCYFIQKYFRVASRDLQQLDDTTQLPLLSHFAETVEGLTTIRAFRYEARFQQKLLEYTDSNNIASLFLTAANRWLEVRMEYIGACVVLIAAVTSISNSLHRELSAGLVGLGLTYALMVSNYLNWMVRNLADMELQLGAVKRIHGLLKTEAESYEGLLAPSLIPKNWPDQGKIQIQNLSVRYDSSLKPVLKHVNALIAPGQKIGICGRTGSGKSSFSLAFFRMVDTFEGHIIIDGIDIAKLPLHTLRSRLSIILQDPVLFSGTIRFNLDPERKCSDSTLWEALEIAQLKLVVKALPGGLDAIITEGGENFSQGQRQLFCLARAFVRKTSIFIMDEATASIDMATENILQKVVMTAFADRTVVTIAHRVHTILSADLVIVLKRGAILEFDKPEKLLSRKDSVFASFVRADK

whole islets = conditions: 5 mM
PPARa/g = conditions: high-fat-fed rats
porcine carotid arteries = conditions: added to amino-oxyacetic acid

For COc1cccc(-c2cc(=O)c3ccccc3o2)c1N [PD98059], which “negative effect of TNF-alpha on UCP-1 mRNA expression” value (UCP-1 mRNA expression) is on record?
Its value is “reversed”.

With [Cl-].[K+] [KCl] as the compound, how does the “change in resting tone” value ([1]; 10 mM KCl, glucose-PSS) read?
Its value is -0.8 ± 0.8 g.

And the “change in resting tone (increased contraction)” value ([1]; 10 mM KCl, lactate-PSS)?
The value was 1.5 ± 0.7 g.

And the “change in resting tone” value ([1]; 10 mM KCl, pyruvate-PSS)?
The value was -2.1 ± 0.8 g.

Which “glycolysis and lactate production” value (Na(+)-K(+)-ATPase) does the source give for C[C@@H]1O[C@@H](O[C@H]2C[C@@H](O)[C@]3(CO)[C@H]4[C@H](O)C[C@]5(C)[C@@H](C6=CC(=O)OC6)CC[C@]5(O)[C@@H]4CC[C@]3(O)C2)[C@H](O)[C@H](O)[C@H]1O [ouabain] here?
Its value is “decreased”.

For CC1=C(/C=C/C(C)=C/C=C/C(C)=C/C(=O)O)C(C)(C)CCC1 [all-trans-retinoic acid], which “p44/p42 and p38 mitogen-activated protein kinase activation” value [2] is on record?
The value was “induce”.

With NOCC(=O)O [amino-oxyacetic acid] as the compound, how does the “negative shift in the cytosolic NAD+/NADH redox potential” value [3] read?
The value was 26 mV.

Which “hepatic PDK4 protein” value (PPAR-alpha [4]) does the source give for Cc1cccc(Nc2cc(Cl)nc(SCC(=O)O)n2)c1C [WY14,643] here?
The value was “significantly increased”.

And the “pyruvate dehydrogenase kinase activity, PDK4 protein and PDK4 mRNA” value (PPAR-alpha [5])?
The value was “large increases”.

For CC1=C(/C=C/C(C)=C\C=C\C(C)=C\C(=O)O)C(C)(C)CCC1 [9-cis-retinoic acid], which “p44/p42 and p38 mitogen-activated protein kinase activation” value [2] is on record?
The value was “induce”.

Which “increase of O2 consumption” value ([1]; 10 mm in PSS) does the source give for CC(O)C(=O)O (stereo not drawn) [lactate] here?
The value was “without effect”.

Which results are given for COC(=O)C(C)=O [methyl pyruvate]?
cation current across the inner membrane of mitochondria [6]: directly inhibited; insulin release ([7]; D-glucose 16.7 mM and/or methyl ester 20.0 mM): negative insulinotropic action; insulin release ([7]; D-glucose 2.8 to 8.3 mM, ester not exceeding 10.0 mM): positive insulinotropic action; NADH and NADPH response (pancreatic islets): robust NADH and NADPH response; ATP production with glutamate [8]: higher than that induced by pyruvate/glutamate; efficiency in intramitochondrial metabolism (amino acid conversion, inhibition of glucose utilization, 14CO2 output) [9]: more efficient than pyruvate; mitochondrial alkalinization [9]: more marked mitochondrial alkalinization than pyruvate; increase in insulin secretion relative to that induced by glucose (pancreatic beta-cells [10]): 6 fold; concentration of maximal effect on insulin secretion (pancreatic beta-cells [10]; absence of glucose): 5 mM; ATP production or ATP/ADP ratio (pancreatic beta-cells [11]): did not influence; NAD(P)H autofluorescence (pancreatic beta-cells [11]): slightly decreased; [Ca2+]i (pancreatic beta-cells [11]): sustained rise; depolarization of beta-cell membrane potential (pancreatic beta-cells [11]; 5-20 mM): depolarized the beta-cell in a concentration-dependent manner; cytosolic free Ca(2+) concentration (pancreatic beta-cells [11]; after an initial decrease): increased; electrical activity (pancreatic beta-cells [11]; presence of 0.5 mM glucose): elicited electrical activity; block of KATP (K(ATP) channels): block; single-channel currents (K(ATP) channels; inside-out patches): blocked; K(ATP) current (K(ATP) channels; standard whole-cell configuration): inhibited; ATP/ADP ratio in whole islets (whole islets): no effect

With CCO[C@@H](Cc1ccc(OCCc2ccc(OS(C)(=O)=O)cc2)cc1)C(=O)O [tesaglitazar] as the compound, how does the “diglyceride and long chain acyl coenzyme A in skeletal muscle” value (PPARa/g) read?
The value was “decreased”.

What about the hepatic triglyceride accumulation (PPARa/g) of the same compound?
The hepatic triglyceride accumulation was “reduced”.

What about the “glucose infusion rate during hyperinsulinemic-euglycemic clamp” value (PPARa/g; 7 d) of the same compound?
The value was “increase”.

With CC(C)CC[C@@H](O)[C@@H](C)[C@H]1CC[C@H]2[C@@H]3CC=C4C[C@@H](O)CC[C@]4(C)[C@H]3CC[C@]12C [22 (R)-hydroxycholesterol] as the compound, how does the “suppressive effects of LXRs on PPARa-induced PPRE-luciferase activity” value (LXR) read?
Its value is “dose dependently enhanced”.

Which “adverse energetic effects of malate-aspartate shuttle inhibition” value (porcine carotid arteries) does the source give for CCCCCCCC(=O)O [octanoate] here?
Its value is “normalized”.

For O=S(=O)(c1ccccc1)N(CC(F)(F)F)c1ccc(C(O)(C(F)(F)F)C(F)(F)F)cc1 [T0901317], which “suppressive effects of LXRs on PPARa-induced PPRE-luciferase activity” value (LXR) is on record?
Its value is “dose dependently enhanced”.
